# Data: article PMC2714839, “Evidence for a role of NTS2 receptors in the modulation of tonic pain sensitivity” (Molecular Pain, 2009)
# “And” between values parts separate entries of the source, which are not always exact repeats. Equal entries are not always repeated. Where two headings read alike, the source gives them in different places. Non-standard residues stand in square brackets, D forms with d. Residues, ends and D or L forms follow the SMILES beside them. Ala(indol-4-yl) = N[C@@H](Cc1cccc2[nH]ccc12)C(=O)O; NMeR = CN[C@@H](CCCNC(=N)N)C(=O)O; Tle = CC(C)(C)[C@H](N)C(=O)O
# Columns and labels:
# [1] = target: T1, rNTS1 (Rattus norvegicus, UniProt P20789); assay: Competition binding of [3H]-NT to HEK293 cell membranes expressing rNTS1
# T1 construct: expressed in transfected cells; membrane homogenates
# T1 sequence (P20789 whole entry): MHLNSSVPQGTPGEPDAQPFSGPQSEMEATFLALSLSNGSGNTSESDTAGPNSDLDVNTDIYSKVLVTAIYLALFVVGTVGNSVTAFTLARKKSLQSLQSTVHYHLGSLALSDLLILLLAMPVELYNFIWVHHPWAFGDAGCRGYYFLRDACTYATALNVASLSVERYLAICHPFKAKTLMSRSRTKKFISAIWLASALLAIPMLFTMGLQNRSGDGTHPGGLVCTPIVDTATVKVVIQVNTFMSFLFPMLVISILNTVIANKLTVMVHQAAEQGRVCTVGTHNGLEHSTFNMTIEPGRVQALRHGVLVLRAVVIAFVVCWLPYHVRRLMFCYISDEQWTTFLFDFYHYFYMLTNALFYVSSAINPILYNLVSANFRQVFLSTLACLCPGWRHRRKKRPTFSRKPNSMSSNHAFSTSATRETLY
# Description: (§1) Cells were fed every 2 days with 20 ml of medium. 70–80% confluent HEK 293 cells were washed twice with phosphate-buffered saline solution, scraped into 50 mM Tris-HCl (pH 7.4) buffer containing 1 mM EDTA and 250 mM sucrose and centrifuged at 15,000 g for 12 min at 4°C. Pellets were then re-suspended in hypotonic TE buffer (50 mM Tris-HCl (pH 7.4) buffer containing 1 mM EDTA) and membrane homogenates were recovered by centrifugation for 30 min at 4°C. The final protein concentration was determined with the use of the BCA assay kit (Pierce Biotechnology Inc, Rockford, IL).
# (§2) Binding was terminated by two successive additions of 3 ml of ice-cold buffer and filtering under vacuum through GF/B filters presoaked in binding buffer containing 0.2% polyethyleneimine (48-well Brandel Harvester). Filters were placed in scintillation vials containing 5 ml scintillation liquid (Ecolite) and then counted in a beta counter.
# [2] = target: T2, rNTS2 (Rattus norvegicus, UniProt Q63384); assay: Competition binding of [3H]-NT to HEK293 cell membranes expressing rNTS2
# T2 construct: expressed in transfected cells; membrane homogenates
# T2 sequence (Q63384 1-416): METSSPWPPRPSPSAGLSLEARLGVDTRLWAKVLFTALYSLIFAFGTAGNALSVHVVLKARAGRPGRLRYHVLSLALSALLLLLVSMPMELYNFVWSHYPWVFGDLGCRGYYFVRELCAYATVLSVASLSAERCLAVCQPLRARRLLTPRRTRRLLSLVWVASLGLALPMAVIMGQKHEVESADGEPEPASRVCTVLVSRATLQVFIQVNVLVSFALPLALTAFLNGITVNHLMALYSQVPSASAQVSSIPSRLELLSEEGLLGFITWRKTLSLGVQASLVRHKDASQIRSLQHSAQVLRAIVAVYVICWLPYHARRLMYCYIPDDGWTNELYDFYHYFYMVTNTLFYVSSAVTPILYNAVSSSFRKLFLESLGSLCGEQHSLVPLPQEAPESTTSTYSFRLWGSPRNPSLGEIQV
# Description: as §1, §2
# [3] = test system: c-fos; assay: Formalin-evoked c-fos-like immunoreactivity in lumbar spinal cord (L4-L5); format: in vivo; conditions: rat
# Description: At 45 min following formalin injection, rats were deeply anesthetized and perfused intraaortically with ice-cold 4% paraformaldehyde (Fisher Scientific, Montreal, QC, Canada) in 0.1 M PB, pH 7.4. The spinal cord was isolated and then cryoprotected overnight at 4°C in 30% sucrose in phosphate-buffered saline (PBS). Prior to tissue sectioning, an incision was made in the ventral horn of the contralateral side to allow spatial positioning of the spinal cord for further analysis. Transverse frozen sections (35-μm-thick) were then cut from the lumbar segment (L4-L5) of the spinal cord with a sliding microtome and processed by a free-floating slice immunohistochemistry procedure. After elimination of endogenous peroxidase activity with 0.3% hydrogen peroxide in PBS for 1 h, the tissue sections were rinsed three times in PBS and incubated for 1 h at RT in a blocking solution of 3% normal goat serum (NGS) and 0.3% Triton X-100 in PBS. After washing, free-floating sections were incubated overnight at RT with the rabbit anti-c-fos polyclonal antibody diluted 1:1000 in PBS (sc-52, Santa Cruz Biotechnology, Santa Cruz, CA, USA), containing 1% NGS and 0.3% Triton X-100. The tissue was then washed three times in PBS and transferred to a goat anti-rabbit biotinylated secondary IgG complex (1:200 in 1% NGS and 0.3% Triton X-100 in PBS; Vector, Burlingame, CA, USA) for 1 h at RT followed by exposing to avidin-biotin horseradish peroxydase complex (1:100; Vectastain ABC-Elite kit, Vector Laboratories, Burlington, ON, Canada) for 1 h at RT. After the final wash with PBS, the chromagen was developed using nickel intensified 3,3'-diaminobenzidine (DAB, 0.01%) and 0.3% H2O2. Finally, the sections were thoroughly rinsed with PBS, mounted onto slides, dehydrated in a series of graded alcohols, defatted in xylene, and placed on coverslips.
# Sections were visually scanned and photographed using a bright-field microscope (Leica DM4000B; Leica Microsystems, Toronto, Canada). The individual sections were printed and overlaid with an acetate sheet on which the distribution of c-fos immunoreactive neurons was then plotted. […] For the quantification of c-fos labeled neurons, each section of the spinal cord was divided into four regions of interest: the superficial laminae (laminae I, IIo and IIi), the nucleus proprius (laminae III and IV), the neck of the dorsal horn (laminae V and VI) and the deep lamina X according to the cytoarchitectonic organization of the spinal cord. The number of c-fos immunoreactive neurons in the four defined regions was determined by averaging the counts made in 10–15 sections and expressed as mean ± S.E.M. of these values for all the rats in that treatment group for statistical analysis of the different experimental conditions. […] A Dunnett's t-test was applied to assess differences between the drug and vehicle groups. A value of P < 0.05 was considered statistically significant.
# [4] = test system: formalin-induced nociceptive behaviors; assay: Formalin test, cumulative time in stereotypic behaviors (lifting; flinching/licking/biting); format: in vivo; conditions: rat
# Description: Experiments were performed with adult male Sprague-Dawley rats (250–300 g; Charles River, St-Constant, QC, Canada) kept on a 12 h light/dark cycle and allowed ad libitum access to food and water. Animals were individually acclimatized to Plexiglas enclosures for 3 consecutive days prior to testing. The formalin test was always performed by […] in a quiet room and between 08.00 AM and 12.00 PM to reduce any variation related to circadian rhythm. The experimental procedures in this study were approved by the Animal Care Committee of the University of Sherbrooke and were in accordance with policies and directives of the Canadian Council on Animal Care.
# Behavioral experiments aimed at establishing the effects of NT analogs and NTS2-selective agonists on formalin-induced nocifensive behaviors. To this end, rats were lightly anesthetized with isoflurane (Abbott Laboratories, Montreal, QC, Canada) and injected intrathecally, at the L5-L6 intervertebral space, with either NT (6 μg/kg), NT69L (5 μg/kg), JMV-431 (5 to 60 μg/kg), or levocabastine (0.5 and 5 μg/kg) diluted in 30 μl of physiological saline (0.9% NaCl), 5 min before formalin administration. Control animals received physiological saline.
# Antinociception was assessed using the formalin test as a model of persistent pain. […]
# Following this, the rats were placed in clear plastic chambers (30 × 30 × 30 cm) positioned over a mirror angled at 45°, in order to allow an unobstructed view of the paws, and their behaviors were recorded for the next 60 min. […] Nocifensive behaviors were assessed using a weighed score as described previously. […] The weighted nociceptive score, ranging from 0 to 3, is calculated by multiplying the time spent in each category by its assigned weight category, summing these products and dividing by the total time for each 3 min block of time. The total area under the curve (A.U.C.) for the inflammatory phase (phase 2) was calculated between 21 to 60 min for each animal. Phase 2 was further subdivided in early (21–39 min) and late (40–60) phases and analyzed as separate events. Formalin-induced pain related behavior may also be quantified by monitoring the number and the duration of episodes of different behavioral endpoints. The cumulative time spent in both lifting (state 2) and flinching/licking/biting (state 3), reflecting behavioral reactions integrated at different CNS levels, were also determined during the inflammatory phase (21 to 60 min following formalin).
# Data are presented as means ± standard errors of the mean (S.E.M.). […] Nociceptive scores over the 3 min time blocks were analyzed using a two-way analysis of variance for repeated measures, with comparisons between experimental groups and the control group at each time interval using Bonferroni's post hoc t-test. […]
# [5] = test system: formalin-induced nociceptive behaviors; assay: Formalin test, weighted pain score (A.U.C.) after intrathecal pretreatment; format: in vivo; conditions: rat, i.t. 5 μg/kg; for reduction of pain behaviors in the tonic phase (phase 2, 21-60 min, A.U.C.) vs vehicle: 5 min before formalin
# Description: Experiments were performed with adult male Sprague-Dawley rats (250–300 g; Charles River, St-Constant, QC, Canada) kept on a 12 h light/dark cycle and allowed ad libitum access to food and water. Animals were individually acclimatized to Plexiglas enclosures for 3 consecutive days prior to testing. The formalin test was always performed by three different experimenters in a quiet room and between 08.00 AM and 12.00 PM to reduce any variation related to circadian rhythm.
# Antinociception was assessed using the formalin test as a model of persistent pain. For this purpose, rats were placed for a 60-min habituation period in the experimentation room. Thereafter, rats received a 50 μl subcutaneous injection of diluted 2% formaldehyde (i.e. 5% formalin, Fisher Scientific, Montreal, QC, Canada) into the plantar surface of the right hind paw.
# Following this, the rats were placed in clear plastic chambers (30 × 30 × 30 cm) positioned over a mirror angled at 45°, in order to allow an unobstructed view of the paws, and their behaviors were recorded for the next 60 min. […] Nocifensive behaviors were assessed using a weighed score as described previously [43, 44]. […] The weighted nociceptive score, ranging from 0 to 3, is calculated by multiplying the time spent in each category by its assigned weight category, summing these products and dividing by the total time for each 3 min block of time. The total area under the curve (A.U.C.) for the inflammatory phase (phase 2) was calculated between 21 to 60 min for each animal. Phase 2 was further subdivided in early (21–39 min) and late (40–60) phases and analyzed as separate events [45]. […] The cumulative time spent in both lifting (state 2) and flinching/licking/biting (state 3), reflecting behavioral reactions integrated at different CNS levels, were also determined during the inflammatory phase (21 to 60 min following formalin) [42].
# Data are presented as means ± standard errors of the mean (S.E.M.). All calculations and statistical analysis were performed using Prism 4.0 and Instat 3.05 (Graph Pad Software, San Diego, CA, USA). Nociceptive scores over the 3 min time blocks were analyzed using a two-way analysis of variance for repeated measures, with comparisons between experimental groups and the control group at each time interval using Bonferroni's post hoc t-test. A one-way ANOVA followed by Dunnett's post hoc t-test was used to determine the significance of differences in the A.U.C. and in the time spent in states 2 and 3. A difference in responses between groups was considered significant with P values; * P < 0.05 and ** P < 0.01.
# [6] = i.t. 5 μg/kg, 45 min after formalin
IC50 ([1]; read-out: IC50 rNTS1),"IC50 ([2]; inhibition of 2 nM [3H]-NT binding, HEK293 cell membranes expressing rat NTS2, read-out: IC50 rNTS2)",SMILES,IC50 [1],IC50 ([2]; IC50 rNTS2),"reduction of contralateral c-fos immunoreactivity, lamina X [3, 6]","reduction of contralateral c-fos immunoreactivity, laminae I-II [3, 6]","reduction of contralateral c-fos immunoreactivity, laminae III-IV [3, 6]","reduction of contralateral c-fos immunoreactivity, laminae V-VI [3, 6]","reduction of number of c-fos-LI neurons, ipsilateral laminae I-II [3, 6]","reduction of number of c-fos-LI neurons, ipsilateral laminae III-IV [3, 6]","reduction of number of c-fos-LI neurons, ipsilateral laminae V-VI [3, 6]","reduction of number of c-fos-LI neurons, ipsilateral laminae X [3, 6]","effect on formalin-evoked licking/shaking/biting behaviors, phase 2 ([4]; i.t., all doses tested)","inhibition of cumulative time spent in lifting, phase 2 (21-60 min) ([4]; i.t., maximum reached over the doses tested (JMV-431 5-60 μg/kg, levocabastine 0.5-5 μg/kg))",decrease in A.U.C. in early phase 2 (21-39 min) [5],decrease in A.U.C. in late phase 2 (40-60 min) [5],"reduction of pain behaviors in the tonic phase (phase 2, 21-60 min, A.U.C.) vs vehicle [5]",effect on spinal nociceptive neuronal responses (c-fos) induced by formalin ([3]; data not shown),reduction of lifting time during the tonic phase ([4]; i.t. NT69L 5 μg/kg),"attenuation of flinching, licking and biting responses (maximum antagonism) ([4]; i.t. NT69L 5 μg/kg, tonic phase)"
–,–,"CC[C@H](C)[C@H](NC[C@H](Cc1ccc(O)cc1)NC(=O)[C@@H]1CCCN1C(=O)[C@H](CCCNC(=N)N)NC(=O)[C@H](CCCNC(=N)N)NC(=O)OC(C)(C)C)C(=O)N[C@@H](CC(C)C)C(=O)O [JMV-431, Boc-Arg-ArgPro-Tyrø(CH2NH)-Ile-Leu-OH]",4.74 ± 0.135 µM,19 ± 3.2 nM,–,–,–,–,–,–,–,–,–,–,–,–,–,–,–,–
> 10 µM,3 nM and 2.7 nM,"C[C@@H]1CN([C@H]2CC[C@](C#N)(c3ccc(F)cc3)CC2)CC[C@]1(C(=O)O)c1ccccc1 [Levocabastine, levocabastine]",–,–,98 ± 1%,74 ± 7%,72 ± 7%,77 ± 5%,26 ± 7%,60 ± 5%,53 ± 3%,56 ± 8%,do not reverse,73 ± 5%,no effect,48 ± 16%,29 ± 5%,–,–,–
–,–,"CN[C@@H](CCCNC(=N)N)C(=O)N[C@@H](CCCCN)C(=O)N1CCC[C@H]1C(=O)N[C@@H](Cc1cccc2[nH]ccc12)C(=O)N[C@H](C(=O)N[C@@H](CC(C)C)C(=O)O)C(C)(C)C [NT69L, N-methyl-Arg-Lys-Pro-L-neo-Trp-tert-Leu-Leu-OH] (H-[NMeR]KP[Ala(indol-4-yl)][Tle]L-OH; N-terminus assumed)",0.0022 ± 0.0005 µM,3.7 ± 0.4 nM,–,–,–,–,–,–,–,–,–,–,70 ± 13%,48% ± 19,59 ± 13%,attenuated,74 ± 13%,70 ± 15%
